Results reported in paper PMC7531004, “Discovery of gramicidin A analogues with altered activities by multidimensional screening of a one-bead-one-compound library” (Nature Communications, 2020).
Where a SMILES comes first, the peptide text is derived from it. [ ]: non-standard residue; d: D form. The star is where a group is joined. NHCH2CH2OH = OCCN*; For = O=C*

Key:
[1] = test system: P388 mouse leukemia cells; settings: 92 h
In short: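 P388 cells at 1 × 10^4 cells/mL (final) were exposed to library peptides (stocks diluted 250-fold in RPMI1640/10% FBS) for 92 h at 37 °C, 5% CO2. Viable cells were counted by WST-1/1-methoxy PMS (4 h), absorbance 415 nm, and expressed as cell viability (%).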

[2] = test system: Streptococcus pyogenes SSI-9; experiment: Antibacterial activity assay of bead-derived peptides (three concentrations); type: cell-based; set-up: key: +++: inhibition by the 640-fold diluted peptide solution; ++: inhibition by the 160-fold diluted solution; +: inhibition by the 40-fold diluted solution; -: no inhibition; settings: S. pyogenes, bead-derived peptide solution, three concentrations
In short: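 Library peptide stock applied undiluted, 4-fold and 16-fold diluted in DMSO to S. pyogenes SSI-9 (2 × 10^5 CFU) in cation-adjusted Mueller Hinton broth with 5% laked horse blood. After 18 h at 37 °C, growth judged by visible cell precipitation.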

[3] = H+/Na+ transport assay of bead-derived peptides (one-point); type: biochemical; set-up: key: relative activity; mean of two control wells = 1.00; settings: bead-derived peptide solution, EYPC/EYPG LUVs;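 further: relative to parent gramicidin A activity set to 1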
In short: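 Values are normalized fluorescence, with Triton X-100 defining 100% and untreated LUVs 0%, and the two control wells averaging 1.00. Vesicles carried 1.0 mM pyranine and included egg yolk phosphatidylglycerol. Peptides were incubated with them 30 min at room temperature.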

SMILES	cell viability/% [1]	antibacterial activity [2]	H+/Na+ transport activity normalized against the value of 1 (1.00) [3]
CC(C)C[C@@H](NC(=O)[C@H](Cc1c[nH]c2ccccc12)NC(=O)[C@@H](CC(C)C)NC(=O)[C@H](Cc1c[nH]c2ccccc12)NC(=O)[C@@H](CC(C)C)NC(=O)[C@H](Cc1c[nH]c2ccccc12)NC(=O)[C@H](NC(=O)[C@@H](NC(=O)[C@H](NC(=O)[C@H](C)NC(=O)[C@H](NC(=O)[C@H](C)NC(=O)CNC(=O)[C@@H](NC=O)C(C)C)C(C)C)C(C)C)C(C)C)[C@H](C)O)C(=O)N[C@@H](Cc1c[nH]c2ccccc12)C(=O)NCCO [compound 12287] (For-VGA[dV]A[dV]V[dT]W[dL]W[dL]W[dL]W-NHCH2CH2OH)	100.0%	-	1.16
CC(C)C[C@@H](NC(=O)[C@H](C)NC(=O)CNC(=O)[C@@H](NC=O)C(C)C)C(=O)N[C@@H](C)C(=O)N[C@H](CC(C)C)C(=O)N[C@H](C(=O)N[C@@H](C(=O)N[C@@H](Cc1c[nH]c2ccccc12)C(=O)N[C@@H](C(=O)N[C@@H](Cc1c[nH]c2ccccc12)C(=O)N[C@@H](C(=O)N[C@@H](Cc1c[nH]c2ccccc12)C(=O)N[C@@H](C(=O)N[C@@H](Cc1c[nH]c2ccccc12)C(=O)NCCO)C(C)C)[C@H](C)O)C(C)C)C(C)C)C(C)C [compound 2887] (For-VGA[dL]A[dL]V[dV]W[dV]W[dT]W[dV]W-NHCH2CH2OH)	99.0%	-	1.01
CC(C)C[C@@H](NC(=O)[C@H](C)NC(=O)[C@H](NC(=O)[C@H](C)NC(=O)CNC(=O)[C@@H](NC=O)C(C)C)C(C)C)C(=O)N[C@H](C(=O)N[C@@H](C(=O)N[C@@H](Cc1c[nH]c2ccccc12)C(=O)N[C@@H](C(=O)N[C@@H](Cc1c[nH]c2ccccc12)C(=O)N[C@H](CC(C)C)C(=O)N[C@@H](Cc1c[nH]c2ccccc12)C(=O)N[C@H](CC(C)C)C(=O)N[C@@H](Cc1c[nH]c2ccccc12)C(=O)NCCO)C(C)C)C(C)C)C(C)C [compound 7169] (For-VGA[dV]A[dL]V[dV]W[dV]W[dL]W[dL]W-NHCH2CH2OH)	90.3%	+	1.15
CC(C)C[C@@H](NC(=O)[C@H](Cc1c[nH]c2ccccc12)NC(=O)[C@H](NC(=O)[C@H](Cc1c[nH]c2ccccc12)NC(=O)[C@@H](CC(C)C)NC(=O)[C@H](Cc1c[nH]c2ccccc12)NC(=O)[C@H](NC(=O)[C@@H](NC(=O)[C@H](NC(=O)[C@H](C)NC(=O)[C@H](NC(=O)[C@H](C)NC(=O)CNC(=O)[C@@H](NC=O)C(C)C)[C@H](C)O)C(C)C)C(C)C)C(C)C)C(C)C)C(=O)N[C@@H](Cc1c[nH]c2ccccc12)C(=O)NCCO [compound 3548] (For-VGA[dT]A[dV]V[dV]W[dL]W[dV]W[dL]W-NHCH2CH2OH)	100.0%	-	1.16
CC(C)C[C@@H](NC(=O)[C@H](C)NC(=O)CNC(=O)[C@@H](NC=O)C(C)C)C(=O)N[C@@H](C)C(=O)N[C@H](CC(C)C)C(=O)N[C@H](C(=O)N[C@H](CC(C)C)C(=O)N[C@@H](Cc1c[nH]c2ccccc12)C(=O)N[C@H](CC(C)C)C(=O)N[C@@H](Cc1c[nH]c2ccccc12)C(=O)N[C@@H](C(=O)N[C@@H](Cc1c[nH]c2ccccc12)C(=O)N[C@H](CC(C)C)C(=O)N[C@@H](Cc1c[nH]c2ccccc12)C(=O)NCCO)[C@H](C)O)C(C)C [compound 2283] (For-VGA[dL]A[dL]V[dL]W[dL]W[dT]W[dL]W-NHCH2CH2OH)	100.0%	-	1.07
CC(C)C[C@@H](NC(=O)[C@H](Cc1c[nH]c2ccccc12)NC(=O)[C@H](NC(=O)[C@@H](NC(=O)[C@H](NC(=O)[C@H](C)NC(=O)[C@H](NC(=O)[C@H](C)NC(=O)CNC(=O)[C@@H](NC=O)C(C)C)C(C)C)C(C)C)C(C)C)C(C)C)C(=O)N[C@@H](Cc1c[nH]c2ccccc12)C(=O)N[C@H](CC(C)C)C(=O)N[C@@H](Cc1c[nH]c2ccccc12)C(=O)N[C@@H](C(=O)N[C@@H](Cc1c[nH]c2ccccc12)C(=O)NCCO)[C@H](C)O [compound 5172] (For-VGA[dV]A[dV]V[dV]W[dL]W[dL]W[dT]W-NHCH2CH2OH)	100.0%	++	1.27
CC(C)C[C@@H](NC(=O)[C@H](C)NC(=O)CNC(=O)[C@@H](NC=O)C(C)C)C(=O)N[C@@H](C)C(=O)N[C@H](CC(C)C)C(=O)N[C@H](C(=O)N[C@H](CC(C)C)C(=O)N[C@@H](Cc1c[nH]c2ccccc12)C(=O)N[C@@H](C(=O)N[C@@H](Cc1c[nH]c2ccccc12)C(=O)N[C@@H](C(=O)N[C@@H](Cc1c[nH]c2ccccc12)C(=O)N[C@H](CC(C)C)C(=O)N[C@@H](Cc1c[nH]c2ccccc12)C(=O)NCCO)C(C)C)[C@H](C)O)C(C)C [compound 11660] (For-VGA[dL]A[dL]V[dL]W[dT]W[dV]W[dL]W-NHCH2CH2OH)	100.0%	-	1.09
CC(C)C[C@@H](NC(=O)[C@H](Cc1c[nH]c2ccccc12)NC(=O)[C@H](NC(=O)[C@H](Cc1c[nH]c2ccccc12)NC(=O)[C@H](NC(=O)[C@H](Cc1c[nH]c2ccccc12)NC(=O)[C@@H](CC(C)C)NC(=O)[C@@H](NC(=O)[C@H](NC(=O)[C@H](C)NC(=O)[C@H](NC(=O)[C@H](C)NC(=O)CNC(=O)[C@@H](NC=O)C(C)C)C(C)C)C(C)C)C(C)C)C(C)C)C(C)C)C(=O)N[C@@H](Cc1c[nH]c2ccccc12)C(=O)NCCO [compound 10668] (For-VGA[dV]A[dV]V[dL]W[dV]W[dV]W[dL]W-NHCH2CH2OH)	57.1%	+	1.09
CC(C)C[C@@H](NC(=O)[C@H](Cc1c[nH]c2ccccc12)NC(=O)[C@H](NC(=O)[C@H](Cc1c[nH]c2ccccc12)NC(=O)[C@@H](CC(C)C)NC(=O)[C@H](Cc1c[nH]c2ccccc12)NC(=O)[C@H](NC(=O)[C@@H](NC(=O)[C@H](NC(=O)[C@H](C)NC(=O)[C@H](NC(=O)[C@H](C)NC(=O)CNC(=O)[C@@H](NC=O)C(C)C)C(C)C)C(C)C)C(C)C)C(C)C)C(C)C)C(=O)N[C@@H](Cc1c[nH]c2ccccc12)C(=O)NCCO [compound 1844] (For-VGA[dV]A[dV]V[dV]W[dL]W[dV]W[dL]W-NHCH2CH2OH)	47.9%	++	1.18
CNC(=O)C[C@@H](NC(=O)[C@@H](NC(=O)[C@H](NC(=O)[C@H](C)NC(=O)[C@H](NC(=O)[C@H](C)NC(=O)CNC(=O)[C@@H](NC=O)C(C)C)C(C)C)C(C)C)C(C)C)C(=O)N[C@@H](Cc1c[nH]c2ccccc12)C(=O)N[C@@H](C(=O)N[C@@H](Cc1c[nH]c2ccccc12)C(=O)N[C@H](CC(C)C)C(=O)N[C@@H](Cc1c[nH]c2ccccc12)C(=O)N[C@H](CC(C)C)C(=O)N[C@@H](Cc1c[nH]c2ccccc12)C(=O)NCCO)C(C)C [compound 4049] (For-VGA[dV]A[dV]V[dD](NHMe)W[dV]W[dL]W[dL]W-NHCH2CH2OH)	100.0%	-	1.15
CNC(=O)C[C@@H](NC(=O)[C@@H](NC(=O)[C@@H](CC(C)C)NC(=O)[C@H](C)NC(=O)[C@@H](CC(C)C)NC(=O)[C@H](C)NC(=O)CNC(=O)[C@@H](NC=O)C(C)C)C(C)C)C(=O)N[C@@H](Cc1c[nH]c2ccccc12)C(=O)N[C@H](CC(C)C)C(=O)N[C@@H](Cc1c[nH]c2ccccc12)C(=O)N[C@H](CC(C)C)C(=O)N[C@@H](Cc1c[nH]c2ccccc12)C(=O)N[C@@H](C(=O)N[C@@H](Cc1c[nH]c2ccccc12)C(=O)NCCO)[C@H](C)O [compound 8992] (For-VGA[dL]A[dL]V[dD](NHMe)W[dL]W[dL]W[dT]W-NHCH2CH2OH)	56.1%	-	1.07
CC(C)C[C@@H](NC(=O)[C@H](Cc1c[nH]c2ccccc12)NC(=O)[C@H](NC(=O)[C@H](Cc1c[nH]c2ccccc12)NC(=O)[C@@H](CC(C)C)NC(=O)[C@@H](NC(=O)[C@H](NC(=O)[C@H](C)NC(=O)[C@H](NC(=O)[C@H](C)NC(=O)CNC(=O)[C@@H](NC=O)C(C)C)[C@H](C)O)C(C)C)C(C)C)C(C)C)C(=O)N[C@@H](Cc1c[nH]c2ccccc12)C(=O)N[C@@H](C(=O)N[C@@H](Cc1c[nH]c2ccccc12)C(=O)NCCO)C(C)C [compound 4187] (For-VGA[dT]A[dV]V[dL]W[dV]W[dL]W[dV]W-NHCH2CH2OH)	95.1%	-	1.32
CC(C)C[C@@H](NC(=O)[C@H](Cc1c[nH]c2ccccc12)NC(=O)[C@H](NC(=O)[C@@H](NC(=O)[C@H](NC(=O)[C@H](C)NC(=O)[C@H](NC(=O)[C@H](C)NC(=O)CNC(=O)[C@@H](NC=O)C(C)C)C(C)C)C(C)C)C(C)C)C(C)C)C(=O)N[C@@H](Cc1c[nH]c2ccccc12)C(=O)N[C@@H](C(=O)N[C@@H](Cc1c[nH]c2ccccc12)C(=O)N[C@@H](C(=O)N[C@@H](Cc1c[nH]c2ccccc12)C(=O)NCCO)C(C)C)C(C)C [compound 5570] (For-VGA[dV]A[dV]V[dV]W[dL]W[dV]W[dV]W-NHCH2CH2OH)	96.8%	++	1.26
